The OligoGym collection
Strand notation (5' to 3'): a small letter for the sugar, then the base; units joined by * are phosphorothioate-linked, units joined directly phosphodiester-linked; [ ] holds rarer units or linkages, { } end groups; capitals alone tell only the bases. HELM strings list units from the 5' end as sugar, base in round brackets, then linkage (d deoxyribose, r ribose, m 2'-O-methyl, p phosphodiester). [sp] = phosphorothioate linkage; d = 2'-deoxy (DNA); m = 2'-O-methyl

What was measured:
CDKN2B-AS1 [1] = assay: HEK293-TLR7, 100 nM ASO, then resiquimod
CDKN2B-AS1 [2] = assay: HEK293-TLR8, 100 nM ASO, then resiquimod
EGFR [3] = assay: HEK293-TLR7, 100 nM ASO, then resiquimod
EGFR [4] = assay: HEK293-TLR8, 100 nM ASO, then resiquimod

Substance	TLR7 signal (NF-kB luciferase) (% of resiquimod alone) (CDKN2B-AS1 [1])	TLR8 potentiation (NF-kB luciferase) (fold of resiquimod alone) (CDKN2B-AS1 [2])	TLR7 signal (NF-kB luciferase) (% of resiquimod alone) (EGFR [3])	TLR8 potentiation (NF-kB luciferase) (fold of resiquimod alone) (EGFR [4])
RNA1{m(G)[sp].m(U)[sp].m(C)[sp].m(U)[sp].m(C)[sp].d(T)[sp].d(A)[sp].d(C)[sp].d(T)[sp].d(G)[sp].d(T)[sp].d(T)[sp].d(A)[sp].d(C)[sp].d(C)[sp].m(U)[sp].m(C)[sp].m(U)[sp].m(G)[sp].m(A)}$$$$	19.2	2.41	–	–
RNA1{m(G)[sp].m(U)[sp].m(G)[sp].m(G)[sp].m(U)[sp].d(T)[sp].d(A)[sp].d(A)[sp].d(G)[sp].d(T)[sp].d(A)[sp].d(C)[sp].d(A)[sp].d(T)[sp].d(G)[sp].m(A)[sp].m(G)[sp].m(C)[sp].m(U)[sp].m(C)}$$$$	21.6	0.59	–	–
RNA1{m(G)[sp].m(U)[sp].m(G)[sp].m(U)[sp].m(C)[sp].d(C)[sp].d(T)[sp].d(T)[sp].d(C)[sp].d(A)[sp].d(T)[sp].d(G)[sp].d(C)[sp].d(T)[sp].d(T)[sp].m(U)[sp].m(G)[sp].m(G)[sp].m(A)[sp].m(U)}$$$$	18.1	1.33	–	–
RNA1{m(G)[sp].m(U)[sp].m(G)[sp].m(U)[sp].m(U)[sp].d(T)[sp].d(T)[sp].d(T)[sp].d(A)[sp].d(A)[sp].d(T)[sp].d(T)[sp].d(T)[sp].d(T)[sp].d(G)[sp].m(U)[sp].m(A)[sp].m(G)[sp].m(A)[sp].m(G)}$$$$	23.6	1.31	–	–
RNA1{m(U)[sp].m(A)[sp].m(A)[sp].m(A)[sp].m(A)[sp].d(T)[sp].d(A)[sp].d(A)[sp].d(G)[sp].d(G)[sp].d(G)[sp].d(G)[sp].d(A)[sp].d(A)[sp].d(T)[sp].m(A)[sp].m(G)[sp].m(G)[sp].m(G)[sp].m(G)}$$$$	41	1.28	–	–
RNA1{m(U)[sp].m(A)[sp].m(U)[sp].m(U)[sp].m(U)[sp].d(C)[sp].d(C)[sp].d(A)[sp].d(C)[sp].d(A)[sp].d(T)[sp].d(G)[sp].d(C)[sp].d(C)[sp].d(C)[sp].m(A)[sp].m(G)[sp].m(U)[sp].m(G)[sp].m(U)}$$$$	30.5	2.77	–	–
RNA1{m(U)[sp].m(C)[sp].m(U)[sp].m(C)[sp].m(C)[sp].d(A)[sp].d(T)[sp].d(G)[sp].d(T)[sp].d(C)[sp].d(C)[sp].d(C)[sp].d(A)[sp].d(G)[sp].d(G)[sp].m(C)[sp].m(C)[sp].m(U)[sp].m(C)[sp].m(C)}$$$$	43.5	3.41	–	–
RNA1{m(U)[sp].m(G)[sp].m(U)[sp].m(G)[sp].m(A)[sp].d(A)[sp].d(A)[sp].d(A)[sp].d(G)[sp].d(A)[sp].d(T)[sp].d(T)[sp].d(A)[sp].d(T)[sp].d(C)[sp].m(U)[sp].m(U)[sp].m(C)[sp].m(U)[sp].m(U)}$$$$	34.5	2.79	–	–
RNA1{m(U)[sp].m(U)[sp].m(A)[sp].m(A)[sp].m(A)[sp].d(T)[sp].d(A)[sp].d(A)[sp].d(T)[sp].d(C)[sp].d(T)[sp].d(A)[sp].d(G)[sp].d(T)[sp].d(T)[sp].m(U)[sp].m(G)[sp].m(A)[sp].m(A)[sp].m(G)}$$$$	25.7	3.96	–	–
RNA1{m(U)[sp].m(U)[sp].m(G)[sp].m(U)[sp].m(G)[sp].d(A)[sp].d(A)[sp].d(A)[sp].d(A)[sp].d(G)[sp].d(A)[sp].d(T)[sp].d(T)[sp].d(A)[sp].d(T)[sp].m(C)[sp].m(U)[sp].m(U)[sp].m(C)[sp].m(U)}$$$$	35	1.05	–	–
mA*mA*mA*mA*mA*dT*dT*dA*dC*dT*dT*dT*dA*dA*dA*mA*mG*mC*mA*mA	–	–	71.1	1.32
mA*mA*mA*mA*mG*dG*dA*dG*dA*dA*dA*dA*dC*dT*dA*mU*mC*mU*mU*mC	–	–	47.6	1.65
mA*mA*mG*mG*mC*dC*dC*dT*dT*dC*dG*dC*dA*dC*dT*mU*mC*mU*mU*mA	–	–	31.2	1.49
mA*mA*mU*mU*mA*dC*dT*dT*dT*dA*dA*dA*dA*dG*dC*mA*mA*mA*mA*mG	–	–	77.1	2.07
mA*mC*mA*mG*mU*dG*dT*dT*dG*dA*dG*dA*dT*dA*dC*mU*mC*mG*mG*mG	–	–	47.6	2.73
mA*mG*mG*mU*mG*dT*dC*dC*dT*dT*dG*dC*dA*dC*dG*mU*mG*mG*mC*mU	–	–	76.4	1.27
mA*mG*mU*mA*mA*dA*dA*dA*dG*dC*dT*dT*dT*dT*dG*mA*mA*mG*mU*mG	–	–	48.3	2.7
mA*mU*mC*mC*mA*dC*dC*dA*dC*dG*dT*dC*dG*dT*dC*mC*mA*mU*mG*mU	–	–	34.7	1.06
mA*mU*mG*mC*mC*dA*dT*dC*dC*dA*dC*dT*dT*dG*dA*mU*mA*mG*mG*mC	–	–	29.3	1.16
mA*mU*mG*mU*mC*dC*dC*dG*dC*dC*dA*dC*dT*dG*dG*mA*mU*mG*mC*mU	–	–	71.7	0.84
mA*mU*mU*mA*mC*dT*dT*dT*dA*dA*dA*dA*dG*dC*dA*mA*mA*mA*mG*mG	–	–	42.9	2.17
mC*mA*mA*mG*mG*dC*dC*dC*dT*dT*dC*dG*dC*dA*dC*mU*mU*mC*mU*mU	–	–	79.4	2.42
mC*mA*mC*mU*mG*dG*dG*dT*dG*dT*dA*dA*dG*dA*dG*mG*mC*mU*mC*mC	–	–	87.3	2.44

Substance	TLR7 signal (NF-kB luciferase) (% of resiquimod alone) (CDKN2B-AS1 [1])	TLR8 potentiation (NF-kB luciferase) (fold of resiquimod alone) (CDKN2B-AS1 [2])	TLR7 signal (NF-kB luciferase) (% of resiquimod alone) (EGFR [3])	TLR8 potentiation (NF-kB luciferase) (fold of resiquimod alone) (EGFR [4])
mC*mA*mG*mG*mU*dG*dT*dC*dC*dT*dT*dG*dC*dA*dC*mG*mU*mG*mG*mC	–	–	55.4	1.95
mC*mG*mG*mC*mA*dT*dC*dC*dA*dC*dC*dA*dC*dG*dT*mC*mG*mU*mC*mC	–	–	56.7	1.33
mC*mU*mG*mU*mG*dA*dT*dC*dT*dT*dG*dA*dC*dA*dT*mG*mC*mU*mG*mC	–	–	53.3	3.44
mC*mU*mU*mG*mC*dA*dC*dG*dT*dG*dG*dC*dT*dT*dC*mG*mU*mC*mU*mC	–	–	28.1	3.06
mC*mU*mU*mU*mU*dG*dA*dA*dG*dT*dG*dA*dA*dG*dT*mA*mA*mA*mA*mG	–	–	79.8	1.98
mC*mU*mU*mU*mU*dG*dG*dG*dA*dA*dC*dG*dG*dA*dC*mU*mG*mG*mU*mU	–	–	53.2	1.91
mG*mA*mA*mG*mU*dG*dA*dA*dG*dT*dA*dA*dA*dA*dG*mG*mA*mG*mA*mA	–	–	35.6	0.57
mG*mC*mA*mA*mG*dG*dC*dC*dC*dT*dT*dC*dG*dC*dA*mC*mU*mU*mC*mU	–	–	33	2.55
mG*mG*mA*mG*mA*dT*dT*dT*dC*dA*dG*dA*dG*dC*dA*mG*mC*mU*mU*mC	–	–	36.2	1.25
mG*mG*mC*mA*mU*dC*dC*dA*dC*dC*dA*dC*dG*dT*dC*mG*mU*mC*mC*mA	–	–	34.9	0.85
mG*mG*mG*mA*mC*dA*dC*dT*dT*dC*dT*dT*dC*dA*dC*mG*mC*mA*mG*mG	–	–	52.1	1.24
mG*mG*mG*mU*mA*dT*dC*dG*dA*dA*dA*dG*dA*dG*dT*mC*mU*mG*mG*mA	–	–	27.1	0.91
mG*mG*mU*mG*mU*dC*dC*dT*dT*dG*dC*dA*dC*dG*dT*mG*mG*mC*mU*mU	–	–	72.2	0.88
mG*mU*mA*mA*mA*dA*dA*dG*dC*dT*dT*dT*dT*dG*dA*mA*mG*mU*mG*mA	–	–	29.1	1.62
mG*mU*mA*mA*mA*dA*dG*dG*dA*dG*dA*dA*dA*dA*dC*mU*mA*mU*mC*mU	–	–	31.7	1.14
mG*mU*mA*mC*mU*dC*dG*dT*dC*dG*dG*dC*dA*dT*dC*mC*mA*mC*mC*mA	–	–	31.5	1.25
mG*mU*mA*mG*mA*dG*dA*dA*dA*dT*dT*dA*dT*dT*dT*mU*mA*mG*mG*mA	–	–	34.5	2.47
mG*mU*mC*mC*mU*dT*dG*dC*dA*dC*dG*dT*dG*dG*dC*mU*mU*mC*mG*mU	–	–	31.5	0.8
mG*mU*mG*mU*mC*dC*dT*dT*dG*dC*dA*dC*dG*dT*dG*mG*mC*mU*mU*mC	–	–	28.3	0.8
mG*mU*mU*mA*mC*dT*dC*dG*dT*dG*dC*dC*dT*dT*dG*mG*mC*mA*mA*mA	–	–	32.3	1.17
mU*mA*mA*mA*mA*dG*dG*dA*dG*dA*dA*dA*dA*dC*dT*mA*mU*mC*mU*mU	–	–	58.2	1.69
mU*mA*mC*mU*mC*dG*dT*dC*dG*dG*dC*dA*dT*dC*dC*mA*mC*mC*mA*mC	–	–	70.2	1.08
